# Molecular target: T1, MOR23 (Mus musculus, UniProt Q62007)
# T1 construct: gene Or10j5; native full-length receptor in GFP-labelled olfactory sensory neurons of gene-targeted MOR23-IRES-tauEGFP mice, intact epithelium; untagged (IRES reporter)
# T1 sequence (Q62007 1-309): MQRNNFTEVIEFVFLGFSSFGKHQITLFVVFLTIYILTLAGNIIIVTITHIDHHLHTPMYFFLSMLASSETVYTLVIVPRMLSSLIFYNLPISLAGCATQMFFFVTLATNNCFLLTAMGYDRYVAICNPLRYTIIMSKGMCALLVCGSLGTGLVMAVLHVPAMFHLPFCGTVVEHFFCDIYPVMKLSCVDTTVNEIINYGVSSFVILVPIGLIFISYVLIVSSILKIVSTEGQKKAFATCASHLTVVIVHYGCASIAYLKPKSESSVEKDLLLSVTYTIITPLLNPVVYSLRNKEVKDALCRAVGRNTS
# Assay: perforated patch-clamp of dendritic knob, peak transduction current, Hill fit
# Type: cell-based
# Details: neurons of control-diet mice; holding -67 mV; Ringer pH 7.6; pressure-delivered odorant; whole-neuron transduction read-out; read-out: K1/2
structure (smiles),measurement,value
CC(C)(O)CCCC1=CCC(C=O)CC1 (stereo not shown) [Lyral],EC50,3 ± 1 µM

# Source: PMC5034277, “High Fructose Diet inducing diabetes rapidly impacts olfactory epithelium and behavior in mice” (Scientific Reports, 2016)
